# Measurements: patent US12673953B2, “Process for preparing an amorphous form of 2-[3-[4-amino-3-(2-fluoro-4-phenoxyphenyl)pyrazolo[3,4-d]pyrimidin-1-yl]piperidine-1-carbonyl]-4-methyl-4-[4-(oxetan-3-yl)piperazin-1-yl]pent-2-enenitrile” (Principia Biopharma Inc., priority 2019, dated 2026)
# Legend:
# Type in all cases: physicochemical
# [1] = Wet particle size distribution by laser diffraction (Malvern Mastersizer 3000); conditions: dispersant heptane with 0.2% Span 80
# Method: Wet particle size distributions were measured using a Malvern Mastersizer 3000 laser diffraction particle size analyzer, with stir speed set at 2200 rpm. Heptane with 0.2% by volume of Span 80 was used as dispersant. To obtain distribution measurements, the Hydro MV medium volume automated dispersion unit was filled with dispersant and aligned. The background was then measured. 80 to 100 mg of sample weighed into a 20 mL vial, to which approximately 3 mL of dispersant was added. The mass was adjusted based on the particle size, with obscuration between 5% and 16%. The whole sample was added to the Hydro MV unit, and the sample was analyzed five times after a 160 second pre-measurement delay. Analysis time was 20 seconds (10 seconds with the red laser, 10 seconds with the blue laser) with no delay between measurements. Data obtained was processed using Mie theory with a sample refractive index of 1.69 and absorption index of 0.1, using the general purpose model with normal sensitivity and the non-spherical particle type. 15 sets of raw data were averaged to form the Global Mean, which represents the average for a sample. If the sample was determined to be variable, further preparations were examined to determine which results were anomalous. Any anomalous results were discarded. Samples were thoroughly mixed prior to sampling (e.g., some samples were aliquoted using a spinning […]).
# [2] = Mean bulk density, mean tapped density and Hausner ratio (modified USP <616>); conditions: for Hausner ratio: ratio of initial volume to constant volume (Vo/Vf)
# Method: Mean bulk density and mean tapped density were determined using a modified method based on USP <616>. Powder was poured into a clean, dry pre-weighed 25 mL cylinder. Powder was added to a total volume of 20 mL to 25 mL without compacting the sample. The mass and initial volume (Vo) of the powder were recorded. The mean bulk density was determined as the average of the mass over initial volume across multiple samples. To determine mean tapped density, the sample was tapped using a Copley JV2000 tapped density tester using the following number of taps: 500, 750, and sets of 1250 taps up to 10,000. The volume was recorded after each set of taps, and the sample was tapped until it reached a constant volume (Vf). The mean tapped density was determined as the average of mass over constant volume across multiple samples. Each sample was analyzed in duplicate. The Hausner ratio was calculated as the ratio of initial volume to the constant volume (Vo/Vf).
# [3] = Thermogravimetric analysis (TA Instruments Q5000 TGA)
# Method: Thermal gravimetric analysis of the samples was performed using the TA Instruments Q5000 TGA. Table 5 provides thermogravimetric analysis data for several distinct solid forms of Compound (I), including mass loss information from multiple replicates across different temperature ranges. As above, Comparator 1 corresponds to the solid form of Compound (I) prepared substantially in accordance with the process detailed in Step 1A in Example 1 of WO 2015/127310. Also, as above, Comparator 2 corresponds to the solid form of Compound (I) prepared substantially in accordance with the process detailed in Example 31 of WO 2014/039899. Comparator 3 corresponds to the solid form of Compound (I) prepared substantially in accordance with the process detailed in Step 1 in Example 1 of WO 2015/127310.
# [4] = Modulated differential scanning calorimetry, glass transition temperature (TA Instrument Q2000 DSC); conditions: for Tg at 25° C., 0% RH: 0% relative humidity
# Method: Modulated differential scanning calorimetry (DSC) analysis was completed with a TA Instrument Q2000 DSC. The samples were heated at 2° C. min^−1, temperature modulation parameters of 0.318° C. (amplitude), and over a temperature range of 6-80° C. to 200° C. The samples were analyzed using a closed aluminum pan.
Structure (SMILES),Wet particle size distribution D10 [1],Wet particle size distribution D50 [1],Wet particle size distribution D90 [1],Mean bulk density [2],Mean tapped density [2],Hausner ratio [2],"Tg at 25° C., 0% RH [4]",other results
"CC(C)(C=C(C#N)C(=O)N1CCCC(n2nc(-c3ccc(Oc4ccccc4)cc3F)c3c(N)ncnc32)C1)N1CCN(C2COC2)CC1 (stereo not shown) [Comparator 1, 2-[3-[4-amino-3-(2-fluoro-4-phenoxy-phenyl)pyrazolo[3,4-d]pyrimidin-1-yl]piperidine-1-carbonyl]-4-methyl-4-[4-(oxetan-3-yl)piperazin-1-yl]pent-2-enenitrile]",18.3 μm,237 μm,694 μm,0.28 g/cc,0.39 g/cc,1.4,–,Mass loss during TGA ([3]; between 40° C. and 118° C.): 3.3% mass loss between 40 °C and 118 °C; Mass loss during TGA ([3]; between 118° C. and 237° C.): 3.2% mass loss between 118 °C and 237 °C
"CC(C)(C=C(C#N)C(=O)N1CCCC(n2nc(-c3ccc(Oc4ccccc4)cc3F)c3c(N)ncnc32)C1)N1CCN(C2COC2)CC1 (stereo not shown) [Comparator 2, 2-[3-[4-amino-3-(2-fluoro-4-phenoxy-phenyl)pyrazolo[3,4-d]pyrimidin-1-yl]piperidine-1-carbonyl]-4-methyl-4-[4-(oxetan-3-yl)piperazin-1-yl]pent-2-enenitrile]",56.9 μm,258 μm,575 μm,0.20 g/cc,0.27 g/cc,1.4,90.1 °C,Mass loss during TGA ([3]; between 40° C. and 135° C.): 3.7% mass loss between 40 °C and 135 °C; Mass loss during TGA ([3]; between 135° C. and 233° C.): 2.3% mass loss between 135 °C and 233 °C
"CC(C)(C=C(C#N)C(=O)N1CCCC(n2nc(-c3ccc(Oc4ccccc4)cc3F)c3c(N)ncnc32)C1)N1CCN(C2COC2)CC1 (stereo not shown) [Comparator 3, 2-[3-[4-amino-3-(2-fluoro-4-phenoxy-phenyl)pyrazolo[3,4-d]pyrimidin-1-yl]piperidine-1-carbonyl]-4-methyl-4-[4-(oxetan-3-yl)piperazin-1-yl]pent-2-enenitrile]",–,–,–,–,–,–,90.1 °C,Mass loss during TGA ([3]; between 30° C. and 100° C.): 3.8% mass loss between 30 °C and 100 °C; Mass loss during TGA ([3]; between 100° C. and 140° C.): 17.6% mass loss between 100 °C and 140 °C
"CC(C)(C=C(C#N)C(=O)N1CCCC(n2nc(-c3ccc(Oc4ccccc4)cc3F)c3c(N)ncnc32)C1)N1CCN(C2COC2)CC1 (stereo not shown) [Compound (I) prepared by a precipitation process described h] [2-[3-[4-amino-3-(2-fluoro-4-phenoxy-phenyl)pyrazolo[3,4-d]pyrimidin-1-yl]piperidine-1-carbonyl]-4-methyl-4-[4-(oxetan-3-yl)piperazin-1-yl]pent-2-enenitrile]",1.9 μm,–,476-683 μm,–,–,1.2,–,"Mass loss during TGA ([3]; between 30° C. and 190° C.): 0.8% mass loss between 30 °C and 190° C.;; Mass loss during TGA ([3]; between 40° C. and 205° C.): 0.4% mass loss between 40 °C and 205° C.;; Mass loss during TGA ([3]; between 40° C. and 225° C.): 0.7% mass loss between 40 °C and 225 °C; Mass loss during TGA ([3]; between 43° C. and 230° C.): 1.9% mass loss between 43 °C and 230° C.;; Mass loss during TGA ([3]; between 44° C. and 230° C.): 1.0% mass loss between 44 °C and 230 °C; Tg at 25° C., 60% RH ([4]; 60% relative humidity, listed as Compound (I) prepared by precipitation process described herein (not micronized)): 69.6 °C"
"CC(C)(C=C(C#N)C(=O)N1CCCC(n2nc(-c3ccc(Oc4ccccc4)cc3F)c3c(N)ncnc32)C1)N1CCN(C2COC2)CC1 (stereo not shown) [Compound (I) prepared by a spray drying process described he] [2-[3-[4-amino-3-(2-fluoro-4-phenoxy-phenyl)pyrazolo[3,4-d]pyrimidin-1-yl]piperidine-1-carbonyl]-4-methyl-4-[4-(oxetan-3-yl)piperazin-1-yl]pent-2-enenitrile]",5.24 μm,13.3 μm,28.4 μm,0.20 g/cc,0.28 g/cc,1.4,–,"Mass loss during TGA ([3]; between 35° C. and 230° C.): 1.2% mass loss between 35 °C and 230 °C; Tg at 25° C., 0% RH ([4]; listed as Compound (I) prepared by spray drying process described herein): 93.8 °C"
